These results are taken from ChEMBL document CHEMBL4480440, “Synthesis and radical-scavenging activity of C-methylated fisetin analogues” (Bioorg Med Chem, 2019).

Experiment [1] in a line: Antioxidant activity assessed as galvinoxyl radical scavenging activity by measuring second order rate constant by UV-vis spectrometric analysis. The experiment is classed as functional.
Experiment [2] is described as follows: Antioxidant activity assessed as galvinoxyl radical scavenging activity by measuring increase in pseudo first-order rate constant UV-vis spectrometric analysis. The experiment is classed as functional.

As for `Cc1cc(-c2oc3cc(O)ccc3c(=O)c2O)cc(O)c1O`, the K in experiment [1] was 1.66 ×10⁵ /M/s. For the compound `O=c1c(O)c(-c2ccc(O)c(O)c2)oc2cc(O)ccc12`, the K in experiment [1] is 7.58 ×10¹ /M/s.

As for `Cc1cc(-c2oc3cc(O)ccc3c(=O)c2O)c(C)c(O)c1O`, the K in experiment [1] turned out to be 1.58 ×10³ /M/s. Moreover, the Activity result in experiment [2] was “Dose-dependent effect”. For the compound `Cc1c(-c2oc3cc(O)ccc3c(=O)c2O)ccc(O)c1O`, the K in experiment [1] was 1.55 ×10² /M/s.
